Experimental data as given in PubChem BioAssay AID1845202 (Molecular Pharmacology Branch, DTP, NCI, 2023).
Several values for one entry are separate records, joined by “and”; a condition that tells them apart may be missing. Identical values can stand only once.

Test system: DMS 114 tumor spheroids, viability % test/control
Test: Anticancer human tumor DMS 114 cell line growth inhibition;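 also: spheroids exposed to compounds for 7 days before read-out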;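 as to viability, T/C: luminescence used as a proxy for viable cells; 100% = DMSO vehicle control viability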
Conditions: spheroids with HUVEC and MSC; for viability, T/C: stronger effect = lower value
Procedure, shortened: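 Complex tumor spheroids combined malignant cells with endothelial cells and mesenchymal stem cells. DNA-damaging drugs and DNA repair inhibitors were tested alone and in combination, at half-log dilutions down from clinical Cmax (top 10 microM if Cmax unknown), 0.25% DMSO final.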

[1] = curve of first compound, second compound 0.003 µM
[2] = curve of first compound, second compound 0.00949 µM
[3] = curve of first compound, second compound 0.03 µM
[4] = curve of first compound, second compound 0.0949 µM
[5] = curve of first compound, second compound 0.3 µM
[6] = second compound 0.003 µM, first compound 0.0316 µM
[7] = second compound 0.003 µM, first compound 0.1 µM
[8] = second compound 0.003 µM, first compound 0.316 µM
[9] = second compound 0.003 µM, first compound 1 µM
[10] = second compound 0.003 µM, first compound 3.16 µM
[11] = second compound 0.003 µM, first compound 10 µM
[12] = second compound 0.00949 µM, first compound 0.0316 µM
[13] = second compound 0.00949 µM, first compound 0.1 µM
[14] = second compound 0.00949 µM, first compound 0.316 µM
[15] = second compound 0.00949 µM, first compound 1 µM
[16] = second compound 0.00949 µM, first compound 3.16 µM
[17] = second compound 0.00949 µM, first compound 10 µM
[18] = second compound 0.03 µM, first compound 0.0316 µM
[19] = second compound 0.03 µM, first compound 0.1 µM
[20] = second compound 0.03 µM, first compound 0.316 µM
[21] = second compound 0.03 µM, first compound 1 µM
[22] = second compound 0.03 µM, first compound 3.16 µM
[23] = second compound 0.03 µM, first compound 10 µM
[24] = second compound 0.0949 µM, first compound 0.0316 µM
[25] = second compound 0.0949 µM, first compound 0.1 µM
[26] = second compound 0.0949 µM, first compound 0.316 µM
[27] = second compound 0.0949 µM, first compound 1 µM
[28] = second compound 0.0949 µM, first compound 3.16 µM
[29] = second compound 0.0949 µM, first compound 10 µM
[30] = second compound 0.3 µM, first compound 0.0316 µM
[31] = second compound 0.3 µM, first compound 0.1 µM
[32] = second compound 0.3 µM, first compound 0.316 µM
[33] = second compound 0.3 µM, first compound 1 µM
[34] = second compound 0.3 µM, first compound 3.16 µM
[35] = second compound 0.3 µM, first compound 10 µM

CC1COCCN1c1cc(-c2ccnn2C)c2ccnc(-c3ccn[nH]3)c2n1 (configuration not stated) + CC[C@@]1(O)C(=O)OCc2c1cc1n(c2=O)Cc2cc3c(CN(C)C)c(O)ccc3nc2-1
IC50 [1]: < 31.6 nM
IC50 [2]: < 31.6 nM
IC50 [3]: < 31.6 nM
IC50 [4]: < 31.6 nM
IC50 [5]: < 31.6 nM
viability, T/C [6]: 24.7%
viability, T/C [7]: 20.3%
viability, T/C [8]: 15.8%
viability, T/C [9]: 11.9%
viability, T/C [10]: 8.38%
viability, T/C [11]: 8.31%
viability, T/C [12]: 16.8%
viability, T/C [13]: 16.3%
viability, T/C [14]: 15.2%
viability, T/C [15]: 10.5%
viability, T/C [16]: 7.71%
viability, T/C [17]: 8.35%
viability, T/C [18]: 13.2%
viability, T/C [19]: 13%
viability, T/C [20]: 11.1%
viability, T/C [21]: 8.42%
viability, T/C [22]: 7.3%
viability, T/C [23]: 7.49%
viability, T/C [24]: 8.52%
viability, T/C [25]: 8.81%
viability, T/C [26]: 8.07%
viability, T/C [27]: 7.09%
viability, T/C [28]: 6.17%
viability, T/C [29]: 7.21%
viability, T/C [30]: 6.92%
viability, T/C [31]: 7.23%
viability, T/C [32]: 6.75%
viability, T/C [33]: 6.68%
viability, T/C [34]: 6.95%
viability, T/C [35]: 7.43%

CC1COCCN1c1cc(-c2ccnn2C)c2ccnc(-c3ccn[nH]3)c2n1 (configuration not stated)
viability, T/C (compound 0.0316 µM): 53.3% and 52% and 78.1%
viability, T/C (compound 0.1 µM): 33.3% and 43.1% and 47.9%
viability, T/C (compound 0.316 µM): 19% and 25.5% and 22.5%
viability, T/C (compound 1 µM): 12% and 12.8% and 12.6%
viability, T/C (compound 3.16 µM): 9.85% and 10.8% and 9.54%
viability, T/C (compound 10 µM): 10.2% and 11.9% and 8.81%
IC50 (curve of compound): 38.2 nM and 40.7 nM and 92.2 nM

Cc1cc(C)c(CNC(=O)c2cc(-c3ccc(CN4CCOCC4)cc3)cc3c2cnn3C2CCCC2)c(=O)[nH]1 + COc1cc2c(cc1O)CCNC21CSC2c3c(OC(C)=O)c(C)c4c(c3C(COC1=O)N1C(O)C3Cc5cc(C)c(OC)c(O)c5C(C21)N3C)OCO4
IC50 (curve of first compound, second compound 30 pM): > 10000 nM
IC50 (curve of first compound, second compound 94.9 pM): > 10000 nM
IC50 (curve of first compound, second compound 0.0003 µM): < 31.6 nM
IC50 (curve of first compound, second compound 0.000949 µM): < 31.6 nM
IC50 [1]: < 31.6 nM
viability, T/C (second compound 30 pM, first compound 0.0316 µM): 112%
viability, T/C (second compound 30 pM, first compound 0.1 µM): 100%
viability, T/C (second compound 30 pM, first compound 0.316 µM): 104%
viability, T/C (second compound 30 pM, first compound 1 µM): 113%
viability, T/C (second compound 30 pM, first compound 3.16 µM): 115%
viability, T/C (second compound 30 pM, first compound 10 µM): 73.2%
viability, T/C (second compound 94.9 pM, first compound 0.0316 µM): 113%
viability, T/C (second compound 94.9 pM, first compound 0.1 µM): 108%
viability, T/C (second compound 94.9 pM, first compound 0.316 µM): 112%
viability, T/C (second compound 94.9 pM, first compound 1 µM): 102%
viability, T/C (second compound 94.9 pM, first compound 3.16 µM): 98.6%
viability, T/C (second compound 94.9 pM, first compound 10 µM): 52.1%
viability, T/C (second compound 0.0003 µM, first compound 0.0316 µM): 40.1%
viability, T/C (second compound 0.0003 µM, first compound 0.1 µM): 35.8%
viability, T/C (second compound 0.0003 µM, first compound 0.316 µM): 48.1%
viability, T/C (second compound 0.0003 µM, first compound 1 µM): 38.8%
viability, T/C (second compound 0.0003 µM, first compound 3.16 µM): 41.4%
viability, T/C (second compound 0.0003 µM, first compound 10 µM): 35.6%
viability, T/C (second compound 0.000949 µM, first compound 0.0316 µM): 2.74%
viability, T/C (second compound 0.000949 µM, first compound 0.1 µM): 3.63%
viability, T/C (second compound 0.000949 µM, first compound 0.316 µM): 3.61%
viability, T/C (second compound 0.000949 µM, first compound 1 µM): 3.83%
viability, T/C (second compound 0.000949 µM, first compound 3.16 µM): 3.94%
viability, T/C (second compound 0.000949 µM, first compound 10 µM): 4.03%
viability, T/C [6]: 0.31%
viability, T/C [7]: 0.33%
viability, T/C [8]: 0.32%
viability, T/C [9]: 0.44%
viability, T/C [10]: 0.34%
viability, T/C [11]: 0.4%

COc1cc(C)[nH]c(=O)c1CN1CCc2c(Cl)cc(C(OC)C3COC3)c(Cl)c2C1=O (configuration not stated) + CC[C@@]1(O)C(=O)OCc2c1cc1n(c2=O)Cc2cc3c(CN(C)C)c(O)ccc3nc2-1
IC50 [1]: > 10000 nM
IC50 [2]: 1920 nM
IC50 [3]: < 31.6 nM
IC50 [4]: < 31.6 nM
IC50 [5]: < 31.6 nM
viability, T/C [6]: 103%
viability, T/C [7]: 88.5%
viability, T/C [8]: 83.4%
viability, T/C [9]: 77%
viability, T/C [10]: 66%
viability, T/C [11]: 61.2%
viability, T/C [12]: 88.3%
viability, T/C [13]: 74.2%
viability, T/C [14]: 64.1%
viability, T/C [15]: 57.5%
viability, T/C [16]: 49.3%
viability, T/C [17]: 32.1%
viability, T/C [18]: 39.2%
viability, T/C [19]: 34%
viability, T/C [20]: 32.1%
viability, T/C [21]: 30.6%
viability, T/C [22]: 24.4%
viability, T/C [23]: 18.5%
viability, T/C [24]: 16.8%
viability, T/C [25]: 16.3%
viability, T/C [26]: 18.4%
viability, T/C [27]: 17.1%
viability, T/C [28]: 15.2%
viability, T/C [29]: 12%
viability, T/C [30]: 10.3%
viability, T/C [31]: 11.2%
viability, T/C [32]: 10.6%
viability, T/C [33]: 11.4%
viability, T/C [34]: 11.1%
viability, T/C [35]: 10.7%
